Experimental data as given in patent US20240300987A1, “TRAP1 INHIBITOR AND USE THEREOF” (SMARTIN BIO INC., priority 2021, published 2024).

Tests used:
[1] = target: T1, human full-length TRAP1 protein (Homo sapiens, UniProt Q12931); assay: Fluorescence polarization (FP) analysis using SB-TM2 probe (client-binding site); details: for IC50: FP analysis using SB-TM2; for Activity compared to that of SMX: TRAP1 binding, relative to SMX of the same table
T1 construct: containing human full-length TRAP1 protein (400 nM); hexahistidine tag followed by TEV protease cleavage site (N, cleaved yes); made in house; host or cells: E. coli BL21 (DE3)
T1 sequence (Q12931 60-704): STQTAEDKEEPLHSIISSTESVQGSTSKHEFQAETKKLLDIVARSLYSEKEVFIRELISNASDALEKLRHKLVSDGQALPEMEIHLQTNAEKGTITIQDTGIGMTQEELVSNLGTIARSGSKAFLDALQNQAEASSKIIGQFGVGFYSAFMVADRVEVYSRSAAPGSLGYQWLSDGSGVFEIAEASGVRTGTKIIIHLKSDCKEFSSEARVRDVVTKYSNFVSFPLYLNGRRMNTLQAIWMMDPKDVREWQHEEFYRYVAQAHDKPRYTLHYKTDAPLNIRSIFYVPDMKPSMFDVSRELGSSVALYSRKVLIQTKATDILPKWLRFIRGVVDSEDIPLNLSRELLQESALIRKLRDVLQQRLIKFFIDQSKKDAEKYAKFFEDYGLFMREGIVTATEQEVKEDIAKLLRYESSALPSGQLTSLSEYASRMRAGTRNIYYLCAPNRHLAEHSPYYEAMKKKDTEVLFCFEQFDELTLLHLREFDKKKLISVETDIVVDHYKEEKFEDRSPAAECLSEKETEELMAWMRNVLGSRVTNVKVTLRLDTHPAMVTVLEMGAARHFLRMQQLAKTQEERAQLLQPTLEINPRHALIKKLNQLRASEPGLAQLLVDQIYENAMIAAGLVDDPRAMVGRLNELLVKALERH
Method: The substance to be analyzed (at a final volume of 100 μL) was added to FP buffer ([…], 2.7 mM KCl, 4.3 mM Na2HPO4, 1.4 mM KH2PO4 (pH 7.3), 1 mM DTT, 2 mM MgCl2, and 0.1 mg/mL BSA) containing human full-length TRAP1 protein (400 nM) and SB-TM2 probe (100 nM) and then reacted at room temperature for 1 hour (96-well plate). Using a SYNERGY NEO microplate reader, FP was measured at an excitation wavelength set to 440 nm and an emission wavelength set to 500 nm.

TRAP1 = target: T2, TRAP1 (Homo sapiens, UniProt Q12931); assay: ATPase activity assay (PiColorLock Gold Phosphate Detection Kit); format: biochemical; parameters: hexahistidine tag followed by TEV protease cleavage site (N, cleaved yes); made in house; host or cells: E. coli BL21 (DE3); details: result in words
T2 sequence (Q12931 60-704): T1 sequence (Q12931 60-704)
Method: The ATPase activity of TRAP1 was measured using the PiColorLock Gold Phosphate Detection Kit (Abcam). Then, 0.5 µM TRAP1 (wild-type or mutation) was pre-incubated along with inhibitors at various concentrations for 30 minutes and then incubated with 0.2 mM ATP at 37° C. for 3 hours in ATPase activity assay buffer containing 50 mM Tris-HCl, 20 mM KCl, and 6 mM MgCl (pH 7.4). Next, 20 µL of a mixture of a PiColorLock Gold reagent and an accelerator (100:1) was added to each sample (100 μL). After 5 minutes of incubation, 10 μL of a stabilizer was added to stop color development. Absorbance was measured at 620 nm using a microplate reader (Synergy NEO, BioTek). The background signal was normalized by subtracting the absorbance of unreacted samples.

HIF1α = assay: Drug activity assay using MIO-M1 HRE/GFP cell line under hypoxia; format: cell-based; details: for IC50: MIO-M1, 24 h, HIF1α inhibitory activity in MIO-M1 cells, 1% O2 24 hours; for Activity compared to that of SMX: HIF1α inhibition, relative to SMX of the same table
Method: After transfection (jetPRIME kit) of MIO-M1 Müller cells with 5HRE/GFP plasmid (Addgene, #46926), the cells transfected with the plasmid were selected using 1 mg/ml of G418 (Neomycin), a selectable marker. A stable cell line was constructed by selecting cells, growing in a colony form, from single cells. The prepared MIO-M1-HRE/GFP stable cell line was dispensed into a 96-well plate and treated with drugs at different concentrations the next day. After being exposed to a hypoxic environment (1% O2) for 24 hours, the GFP (Ex/Em: 488/507) fluorescence signal was measured using a SYNERGY NEO microplate reader (BioTek Instrument). The relative fluorescence value was calculated on the basis of 100% of the negative control group.

[2] = Table 4, other synthetic compounds
[3] = Table 9, other synthetic compounds
[4] = Table 3, other synthetic compounds
[5] = Table 8, other synthetic compounds
[6] = Table 2, antioxidant-TPP conjugates
[7] = Table 7, TPP-antioxidant conjugates

Structure (SMILES): CC1(C)CC(NC(=O)C[P+](c2ccccc2)(c2ccccc2)c2ccccc2)CC(C)(C)N1[O] [Mito-TEMPO, reference compound]
- TRAP1 binding capacity (competitive binding with SB-TM2, CBS of TRAP1) ([1]; result in words): do not exhibit TRAP1 binding capacity

Structure (SMILES): CC(C)NCCCn1c(Sc2cc3c(cc2I)OCO3)nc2c(N)ncnc21 [PU-H71, reference compound]
- TRAP1 ATPase activity with increasing concentration (TRAP1): ATPase activity decreased with the increasing concentration

Structure (SMILES): c1ccc(CCCCCCCCCC[P+](c2ccccc2)(c2ccccc2)c2ccccc2)cc1 [SB-B001, Triphenyl(10-phenyldecyl)phosphonium]
- IC50 [1, 2]: 2970 ± 1050 nM
- Activity compared to that of SMX ([1]; Table 4): 0.14
- IC50 (HIF1α; [3]): 94.7 ± 13.2 nM
- Activity compared to that of SMX (HIF1α; Table 9): 2.95

Structure (SMILES): c1ccc([P+](CCCCCCCCCCC2CCCCC2)(c2ccccc2)c2ccccc2)cc1 [SB-B002, (10-Cyclohexyldecyl)triphenylphosphonium chloride]
- IC50 (HIF1α; [3]): 22.3 ± 1 nM
- Activity compared to that of SMX (HIF1α; Table 9): 12.51

Structure (SMILES): CC1=C(CCCCCCCCCC[P+](c2ccccc2)(c2ccccc2)c2ccccc2)C(=O)c2ccccc2C1=O [SB-K001, (10-(3-Methyl-1,4-dioxo-1,4-dihydronaphthalen-2-yl)decyl)triphenylphosphonium]
- IC50 [1, 2]: 166 ± 23 nM
- Activity compared to that of SMX ([1]; Table 4): 2.45
- IC50 (HIF1α; [3]): 55.5 ± 3.3 nM
- Activity compared to that of SMX (HIF1α; Table 9): 5.03

Structure (SMILES): COc1c(Br)c(C)c(CCCCCCCCCC[P+](c2ccccc2)(c2ccccc2)c2ccccc2)c(OC)c1OC [SB-U005, (10-(3-Bromo-4,5,6-trimethoxy-2-methylphenyl)decyl)triphenylphosphonium]
- IC50 [1, 4]: 385 ± 83.5 nM
- IC50 (HIF1α; [5]): 131 ± 9.1 nM
- Activity compared to that of SMX (HIF1α; Table 8): 3.92

Structure (SMILES): COc1c(O)c(C)c(CCCCCCCCCC[P+](c2ccccc2)(c2ccccc2)c2ccccc2)c(Br)c1OC [SB-U009, (10-(2-Bromo-5-hydroxy-3,4-dimethoxy-6-methylphenyl)decyl)triphenylphosphonium]
- IC50 [1, 4]: 909 ± 136 nM
- Activity compared to that of SMX ([1]; Table 3): 0.8701
- IC50 (HIF1α; [5]): 191 ± 23.6 nM
- Activity compared to that of SMX (HIF1α; Table 8): 2.69

Structure (SMILES): COc1c(C)c(CCCCCCCCCC[P+](c2ccccc2)(c2ccccc2)c2ccccc2)c(Br)c(OC)c1OC [SB-U012, (10-(2-Bromo-3,4,5-trimethoxy-6-methylphenyl)decyl)triphenylphosphonium]
- IC50 [1, 4]: 601 ± 90.6 nM
- Activity compared to that of SMX ([1]; Table 3): 1.315
- IC50 (HIF1α; [5]): 177 ± 8.8 nM
- Activity compared to that of SMX (HIF1α; Table 8): 2.90

Structure (SMILES): COc1c(C)c(CCCCCCCCCC[P+](c2ccccc2)(c2ccccc2)c2ccccc2)c(OC)c(OC)c1OC [SB-U014, Triphenyl(10-(2,3,4,5-tetramethoxy-6-methylphenyl)decyl)phosphonium]
- IC50 [1, 2]: 805 ± 99.4 nM
- IC50 (HIF1α; [3]): 69.4 ± 3.1 nM
- Activity compared to that of SMX (HIF1α; Table 9): 4.02

Structure (SMILES): COC1=C(OC)C(=O)C(CCCCCCCCCC[P+](c2ccccc2)(c2ccccc2)c2ccccc2)=C(C)C1=O [SMX, (10-(4,5-Dimethoxy-2-methyl-3,6-dioxocyclohexadien-1-yl)decyl)triphenylphosphonium, reference compound]
- IC50 ([1]; Table 1, alkyl-TPPs): 623 ± 37.5 nM
- Activity compared to that of SMX ([1]; Table 1): 1
- IC50 [1, 6]: 824 ± 51.2 nM
- Activity compared to that of SMX ([1]; Table 2): 1
- IC50 [1, 4]: 791 ± 51.2 nM
- Activity compared to that of SMX ([1]; Table 3): 1
- IC50 [1, 2]: 406 ± 38.9 nM
- Activity compared to that of SMX ([1]; Table 4): 1
- IC50 (HIF1α; Table 6, alkyl-TPPs): 468 ± 15.1 nM
- IC50 (HIF1α; [7]): 327 ± 22.9 nM
- IC50 (HIF1α; [5]): 514 ± 55.2 nM
- IC50 (HIF1α; [3]): 279 ± 17 nM
- Activity compared to that of SMX (HIF1α; Table 6): 1
- Activity compared to that of SMX (HIF1α; Table 7): 1
- Activity compared to that of SMX (HIF1α; Table 8): 1
- Activity compared to that of SMX (HIF1α; Table 9): 1

Structure (SMILES): CC1=C(C)C(=O)C(CCCCCCCCCC[P+](c2ccccc2)(c2ccccc2)c2ccccc2)=CC1=O [SkQ1, (10-(4,5-Dimethyl-3,6-dioxocyclohexa-1,4-diene-1-yl)decyl)triphenylphosphonium, reference compound]
- IC50 [1, 6]: 696 ± 55.4 nM
- IC50 (HIF1α; [7]): 183 ± 9.1 nM
- Activity compared to that of SMX (HIF1α; Table 7): 1.79

Structure (SMILES): CCCCCC[P+](c1ccccc1)(c1ccccc1)c1ccccc1.[Br-] [TPP-6, hexyltriphenylphosphonium bromide, reference compound]
- IC50 ([1]; Table 1, alkyl-TPPs): 18800 ± 5390 nM
- Activity compared to that of SMX ([1]; Table 1): 0.03
- IC50 (HIF1α; Table 6, alkyl-TPPs): 1430 nM
- Activity compared to that of SMX (HIF1α; Table 6): 0.33

Structure (SMILES): CCCCCCCC[P+](c1ccccc1)(c1ccccc1)c1ccccc1 [TPP-8, Octyltriphenylphosphonium]
- IC50 ([1]; Table 1, alkyl-TPPs): 2570 ± 258 nM
- Activity compared to that of SMX ([1]; Table 1): 0.24
- TRAP1 binding capacity (competitive binding with SB-TM2, CBS of TRAP1) ([1]; result in words): competitive binding with SB-TM2 was confirmed to be enabled
- TRAP1 binding capacity (competitive binding with SB-TM2, CBS of TRAP1) ([1]; result in words, listed as octyl-TPP): competitive binding to SB-TM2 is confirmed to be enabled
- IC50 (HIF1α; Table 6, alkyl-TPPs): 643 ± 258 nM
- Activity compared to that of SMX (HIF1α; Table 6): 0.73

Structure (SMILES): CCCCCCCCCC[P+](c1ccccc1)(c1ccccc1)c1ccccc1 [TPP-10, Decyltriphenylphosphonium]
- IC50 ([1]; Table 1, alkyl-TPPs): 693 ± 57.8 nM
- Activity compared to that of SMX ([1]; Table 1): 0.90
- IC50 (HIF1α; Table 6, alkyl-TPPs): 314 ± 57.8 nM
- Activity compared to that of SMX (HIF1α; Table 6): 1.49

Structure (SMILES): CCCCCCCCCCCC[P+](c1ccccc1)(c1ccccc1)c1ccccc1 [TPP-12, Dodecyltriphenylphosphonium]
- IC50 ([1]; Table 1, alkyl-TPPs): 377 ± 35.4 nM
- Activity compared to that of SMX ([1]; Table 1): 1.65
- binding capacity compared to that of SMX (MitoQ) ([1]; result in words): superior to that of SMX
- IC50 (HIF1α; Table 6, alkyl-TPPs): 111 ± 35.4 nM
- Activity compared to that of SMX (HIF1α; Table 6): 4.21
